The target in data set [1] is T1, c-Met (cytoplasmic domain) (Homo sapiens, UniProt P08581).
T1 construct: Reactions were initiated with 30 ng/mL c-Met (cytoplasmic domain, Invitrogen Corporation #PV3143); purchased Invitrogen Corporation PV3143
Kind of data set: c-Met Kinase Assay (ELISA/TRF, PLC-γ substrate). Format: biochemical. The following applies: 3 μM ATP (Km level); read-out: c-Met Kinase Inhibition (IC50). The gist of the method:
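c-Met cytoplasmic domain (30 ng/mL) phosphorylates plate-coated GST–PLC-γ for 15 min at 37 °C. Phosphotyrosine detected with Eu-labeled PT66 antibody by time-resolved fluorescence. IC50 from variable-slope sigmoidal fit of % inhibition vs log concentration.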
On the technique in general: An ELISA detects its analyte on a solid surface through an enzyme-linked reagent.

In data set [2] the target is baculovirus-expressed ALK (Homo sapiens, UniProt Q9UM73). Kind of data set: ALK Kinase Assay (ELISA/TRF, PLC-γ substrate). Also: 1 µM ATP (Km level). The data set is classed as biochemical. The following applies: read-out: ALK Kinase Inhibition (IC50). The gist of the method: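 Plates coated with GST–PLC-γ fusion substrate (10 μg/mL in TBS); reaction started with 30 ng/ml ALK, run 15 minutes at 37° C. Phosphotyrosine detected by Eu-N1 PT66 antibody (1 hour, 37° C) and time-resolved fluorescence after enhancement. IC50 from sigmoidal variable-slope fit of percent inhibition versus log concentration.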
baculovirus-expressed ALK, sequence (Q9UM73 19-1620): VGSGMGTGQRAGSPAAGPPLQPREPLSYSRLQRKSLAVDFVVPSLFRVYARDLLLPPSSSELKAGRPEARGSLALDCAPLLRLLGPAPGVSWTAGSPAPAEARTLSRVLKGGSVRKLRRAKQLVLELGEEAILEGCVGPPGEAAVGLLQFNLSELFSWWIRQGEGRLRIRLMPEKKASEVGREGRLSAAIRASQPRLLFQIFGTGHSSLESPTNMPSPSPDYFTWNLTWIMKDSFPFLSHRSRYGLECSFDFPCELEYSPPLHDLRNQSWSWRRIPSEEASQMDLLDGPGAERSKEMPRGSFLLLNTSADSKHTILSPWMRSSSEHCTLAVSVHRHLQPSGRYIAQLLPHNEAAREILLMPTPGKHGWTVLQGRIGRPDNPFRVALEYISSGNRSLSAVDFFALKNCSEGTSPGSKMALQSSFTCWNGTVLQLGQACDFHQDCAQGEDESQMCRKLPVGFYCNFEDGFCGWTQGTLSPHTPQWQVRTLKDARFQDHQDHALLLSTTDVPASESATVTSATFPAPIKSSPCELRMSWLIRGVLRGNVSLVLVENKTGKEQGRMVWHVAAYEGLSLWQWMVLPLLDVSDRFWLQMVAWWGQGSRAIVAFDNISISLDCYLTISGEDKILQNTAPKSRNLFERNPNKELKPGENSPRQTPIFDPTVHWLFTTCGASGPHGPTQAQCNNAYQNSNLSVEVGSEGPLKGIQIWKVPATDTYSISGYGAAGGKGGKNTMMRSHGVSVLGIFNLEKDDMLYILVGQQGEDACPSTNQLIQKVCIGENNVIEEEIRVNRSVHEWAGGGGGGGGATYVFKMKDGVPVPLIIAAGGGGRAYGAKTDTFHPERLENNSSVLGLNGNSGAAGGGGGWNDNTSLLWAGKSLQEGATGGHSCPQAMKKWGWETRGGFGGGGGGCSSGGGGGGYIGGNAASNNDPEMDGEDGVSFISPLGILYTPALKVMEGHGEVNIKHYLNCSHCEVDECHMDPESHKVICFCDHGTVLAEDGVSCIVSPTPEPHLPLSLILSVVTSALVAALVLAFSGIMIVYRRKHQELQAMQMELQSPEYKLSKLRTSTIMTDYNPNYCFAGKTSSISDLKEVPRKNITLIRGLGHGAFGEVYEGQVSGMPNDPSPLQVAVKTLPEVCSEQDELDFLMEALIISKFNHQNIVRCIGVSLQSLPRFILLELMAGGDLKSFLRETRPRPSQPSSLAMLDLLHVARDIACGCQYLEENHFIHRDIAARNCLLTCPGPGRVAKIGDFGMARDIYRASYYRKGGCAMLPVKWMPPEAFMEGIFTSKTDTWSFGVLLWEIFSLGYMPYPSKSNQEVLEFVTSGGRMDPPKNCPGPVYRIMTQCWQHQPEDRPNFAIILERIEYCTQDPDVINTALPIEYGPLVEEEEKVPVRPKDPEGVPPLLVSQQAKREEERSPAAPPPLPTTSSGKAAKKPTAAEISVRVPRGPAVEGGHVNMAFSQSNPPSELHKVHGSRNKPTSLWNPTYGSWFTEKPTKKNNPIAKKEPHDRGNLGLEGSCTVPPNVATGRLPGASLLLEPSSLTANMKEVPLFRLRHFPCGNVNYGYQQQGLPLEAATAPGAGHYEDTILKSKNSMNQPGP

Data on 28 molecules can be found in US7601716B2, “Pyridopyrazines and derivatives thereof as ALK and c-Met inhibitors” (Cephalon, Inc., priority 2006, dated 2009).

Bounds are passed on as bounds.

T1 sequence (P08581 956-1390 limits assumed): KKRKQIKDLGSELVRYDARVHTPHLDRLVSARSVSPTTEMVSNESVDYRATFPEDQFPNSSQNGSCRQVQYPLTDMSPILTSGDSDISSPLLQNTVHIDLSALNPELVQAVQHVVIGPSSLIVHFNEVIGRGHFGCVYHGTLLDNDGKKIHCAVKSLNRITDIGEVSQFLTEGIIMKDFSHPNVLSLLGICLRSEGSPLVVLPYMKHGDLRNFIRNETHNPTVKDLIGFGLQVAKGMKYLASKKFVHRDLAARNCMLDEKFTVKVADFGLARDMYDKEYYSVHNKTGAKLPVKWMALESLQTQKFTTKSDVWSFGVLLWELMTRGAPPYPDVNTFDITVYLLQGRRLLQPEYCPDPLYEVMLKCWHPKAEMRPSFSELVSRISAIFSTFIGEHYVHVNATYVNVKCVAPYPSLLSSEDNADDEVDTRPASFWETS

Consider `Fc1cc(F)c(CN2CCNc3ncc(I)cc32)cc1F` [Example 82, 7-Iodo-1-(2,4,5-trifluorobenzyl)-1,2,3,4-tetrahydropyrido[2,3-b]pyrazine], for which the melting point (commonly the temperature of the solid-liquid transition) was 154 to 156 °C. The IC50 (usually the midpoint of a concentration-inhibition curve) in data set [1] was 10 to 100 µM. Also, in data set [2], the IC50 is over 100 µM.
In the same order, the values of `CC1(C)Nc2ncc(I)cc2NC1=O` [Example 91, 7-Iodo-3,3-dimethyl-3,4-dihydro-1H-pyrido[2,3-b]pyrazin-2-one] are over 300 °C, 10 to 100 µM and over 100 µM.
The like results for `O=C(Cc1cc(F)ccc1F)N1CCNc2ncc(I)cc21` [Example 112, 2-(2,5-Difluorophenyl)-1-(7-iodo-3,4-dihydro-2H-pyrido[2,3-b]pyrazin-1-yl)ethanone] were, in that order, 152 to 153 °C, 10 to 100 µM and 10 to 100 µM.
Regarding `O=S(=O)(c1ccccc1Cl)N1CCNc2ncc(I)cc21` [Example 124, 1-(2-Chlorobenzenesulfonyl)-7-iodo-1,2,3,4-tetrahydropyrido[2,3-b]pyrazine], the melting point lay within 146 to 147 °C. In addition, the IC50 in data set [1] is 10 to 100 µM. In addition, the IC50 in data set [2] was in the range of 1 to 10 µM.
`FC(F)(F)c1ccc(CN2CCNc3ncc(I)cc32)o1` [Example 291, 7-Iodo-1-[5-(trifluoromethyl)furan-2-ylmethyl]-1,2,3,4-tetrahydropyrido[2,3-b]pyrazine] registered a melting point of 153 to 154 °C. Further, the IC50 in data set [1] is over 100 µM. The IC50 in data set [2] was in the range of 10 to 100 µM.
In turn, `OC1CCNc2nc(Br)ccc21` (stereo not drawn) [Example 267, 7-bromo-1,2,3,4-tetrahydro-[1,8]naphthyridin-4-ol] displayed a melting point of 130 to 131 °C. Further, the half-inhibitory concentration (IC50) in data set [1] is over 100 µM. In addition, in data set [2], the half-inhibitory concentration (IC50) lay in the range of 10 to 100 µM.
With `Ic1cnc2c(c1)N(Cc1ccccc1)CCN2` [Example 33, 1-Benzyl-7-iodo-1,2,3,4-tetrahydropyrido[2,3-b]pyrazine], the melting point was in the range of 147 to 148 °C. Further, the IC50 in data set [1] was over 100 µM. In data set [2], the IC50 lay within 10 to 100 µM.
Regarding `CN1CCN(C(=O)c2ccc(-c3cnc4c(c3)N(C(=O)c3cc(F)ccc3F)CCN4)cc2)CC1` [Example 88, (2,5-Difluorophenyl)-{7-[4-(4-methylpiperazine-1-carbonyl)phenyl]-3,4-dihydro-2H-pyrido[2,3-b]pyrazin-1-yl}-methanone], the melting point lay in the range of 201 to 203 °C. Further, the IC50 in data set [1] is 1 to 10 µM. The IC50 in data set [2] lay in the range of 10 to 100 µM.
The like results for `CCOC(=O)c1cnc2c(c1)N(Cc1cc(F)ccc1F)CCN2` [Example 75, 1-(2,5-Difluorobenzyl)-1,2,3,4-tetrahydropyrido[2,3-b]pyrazine-7-carboxylic acid ethyl ester] were, in that order, 124 to 125 °C, 10 to 100 µM and 0.1 to 1 µM.
In the same order, the values of `CC(C)CCn1cc(-c2cnc3c(c2)N(Cc2c(F)ccc(F)c2Cl)CCN3)cn1` [Example 191, 1-(2-Chloro-3,6-difluorobenzyl)-7-[1-(3-methylbutyl)-1H-pyrazol-4-yl]-1,2,3,4-tetrahydropyrido[2,3-b]pyrazine] are 134 °C, 0.1 to 1 µM and 0.1 to 1 µM.
The like results for `O=C(c1ccccc1)N1CCNc2ncc(-c3cccnc3)cc21` [Example 43, Phenyl-(7-pyridin-3-yl-3,4-dihydro-2H-pyrido[2,3-b]pyrazin-1-yl)methanone] were, in that order, 219 to 220 °C, 10 to 100 µM and over 100 µM.
For the molecule `Fc1ccc(F)c(CN2CCNc3ncc(-c4ccc(N5CCOCC5)cc4)cc32)c1Cl` [Example 108, 1-(2-Chloro-3,6-difluorobenzyl)-7-(4-morpholin-4-yl-phenyl)-1,2,3,4-tetrahydropyrido[2,3-b]pyrazine], the melting point is 217 to 219 °C. The IC50 in data set [1] lay in the range of 10 to 100 µM. Moreover, the IC50 in data set [2] is under 0.1 µM.
The like results for `CN1CCN(C(=O)c2ccc(-c3cnc4c(c3)N(Cc3cc(F)ccc3F)C(=O)C(C)(C)N4)cc2)CC1` [Example 95, 1-(2,5-Difluorobenzyl)-3,3-dimethyl-7-[4-(4-methylpiperazine-1-carbonyl)phenyl]-3,4-dihydro-1H-pyrido[2,3-b]pyrazin-2-one] were, in that order, 204 to 206 °C, 10 to 100 µM and 1 to 10 µM.
On to `O=C(O)c1ccc(-c2cnc3c(c2)N(Cc2ccccc2OC(F)(F)F)CCN3)cc1` [Example 298, 4-{1-[2-(Trifluoromethoxy)benzyl]-1,2,3,4-tetrahydropyrido[2,3-b]pyrazin-7-yl}benzoic acid], for which the melting point was 250 °C. For the same molecule, in data set [1], the IC50 was over 100 µM. For the same molecule, in data set [2], the IC50 was in the range of 1 to 10 µM.
The like results for `O=C1CNc2ncc(I)cc2N1Cc1ccccc1OC(F)(F)F` [Example 294, 7-Iodo-1-[2-(trifluoromethoxy)benzyl]-3,4-dihydro-1H-pyrido[2,3-b]pyrazin-2-one] were, in that order, 235 °C, 10 to 100 µM and 10 to 100 µM.
The like results for `O=C1CNc2ncc(-c3cccnc3)cc2N1Cc1c(Cl)cccc1Cl` [Example 137, 1-(2,6-Dichlorobenzyl)-7-pyridin-3-yl-3,4-dihydro-1H-pyrido[2,3-b]pyrazin-2-one] were, in that order, over 200 °C, over 100 µM and 10 to 100 µM.
As for `O=C(O)c1ccc(-c2cnc3c(c2)N(Cc2cc(F)ccc2F)C(=O)CN3)cc1` [Example 56, 4-[1-(2,5-Difluorobenzyl)-2-oxo-1,2,3,4-tetrahydropyrido[2,3-b]pyrazin-7-yl]benzoic acid], the melting point is over 300 °C. For the same molecule, the IC50 in data set [1] lay in the range of 10 to 100 µM. Moreover, the 50% inhibitory concentration (IC50) in data set [2] is 1 to 10 µM.
The like results for `O=C1CNc2ncc(I)cc2N1Cc1c(Cl)cccc1Cl` [Example 136, 1-(2,6-Dichlorobenzyl)-7-iodo-3,4-dihydro-1H-pyrido[2,3-b]pyrazin-2-one] were, in that order, over 200 °C, over 100 µM and over 100 µM.
For `CCOC(=O)c1ccc(-c2cnc3c(c2)N(Cc2ccccc2)C(=O)CN3)cc1` [Example 9, 4-(1-Benzyl-2-oxo-1,2,3,4-tetrahydropyrido[2,3-b]pyrazin-7-yl)benzoic acid ethyl ester], the melting point came to 178 °C. For the same molecule, in data set [1], the IC50 was over 100 µM. Further, the IC50 in data set [2] lay in the range of 10 to 100 µM.
In turn, `O=C1CNc2ncc(I)cc2N1Cc1cc(Cl)ccc1Cl` [Example 155, 1-(2,5-Dichlorobenzyl)-7-iodo-3,4-dihydro-1H-pyrido[2,3-b]pyrazin-2-one] registered a melting point of over 200 °C. In addition, the IC50 in data set [1] was over 100 µM. Further, in data set [2], the IC50 fell in the range of 10 to 100 µM.
`O=C(O)CCNc1cccc(Br)n1` [Example 265, 3-(6-bromo-pyridin-2-ylamino)propionic acid] had a melting point of 108 to 109 °C. For the same molecule, the IC50 in data set [1] is over 100 µM. In addition, in data set [2], the IC50 was over 100 µM.
Consider `CN1CCN(C(=O)c2ccc(-c3cnc4c(c3)N(Cc3cc(F)ccc3F)CCN4)cc2)CC1` [Example 67, {4-[1-(2,5-Difluorobenzyl)-1,2,3,4-tetrahydropyrido[2,3-b]pyrazin-7-yl]phenyl}-(4-methylpiperazin-1-yl)methanone], for which the melting point stood at 180 °C. Moreover, the IC50 in data set [1] fell in the range of 1 to 10 µM. For the same molecule, the IC50 in data set [2] fell in the range of 0.1 to 1 µM.
`O=C(O)c1cncc(-c2cnc3c(c2)N(Cc2cc(F)ccc2F)CCN3)c1` [Example 74, 5-[1-(2,5-Difluorobenzyl)-1,2,3,4-tetrahydropyrido[2,3-b]pyrazin-7-yl]-nicotinic acid] displayed a melting point of 255 to 260 °C. In addition, in data set [1], the IC50 was 10 to 100 µM. Further, the half-maximal inhibitory concentration (IC50) in data set [2] was 10 to 100 µM.
For `CCOC(=O)c1ccc(-c2cnc3c(c2)N(Cc2cc(F)ccc2F)CCN3)cc1` [Example 63, 4-[1-(2,5-Difluorobenzyl)-1,2,3,4-tetrahydropyrido[2,3-b]pyrazin-7-yl]benzoic acid ethyl ester], the melting point was 173 to 174 °C. In addition, the IC50 in data set [1] is over 100 µM. For the same molecule, in data set [2], the IC50 lay within 0.1 to 1 µM.
In turn, `Clc1cc(-c2cnc3c(c2)N(Cc2c(Cl)cccc2Cl)CCN3)ccn1` [Example 167, 7-(2-Chloropyridin-4-yl)-1-(2,6-dichlorobenzyl)-1,2,3,4-tetrahydropyrido[2,3-b]pyrazine] came in with a melting point of 194 °C. The IC50 in data set [1] is 10 to 100 µM. Besides, the IC50 in data set [2] is 0.1 to 1 µM.
`Clc1ccc(Cl)c(CN2CCNc3ncc(-c4ccc(N5CCCC5)nc4)cc32)c1` [Example 166, 1-(2,5-Dichlorobenzyl)-7-(6-pyrrolidin-1-yl-pyridin-3-yl)-1,2,3,4-tetrahydropyrido[2,3-b]pyrazine] registered a melting point of over 200 °C. For the same molecule, the IC50 in data set [1] was over 100 µM. The IC50 in data set [2] lay within 0.1 to 1 µM.
In the same order, the values of `O=C1CNc2ncc(I)cc2N1Cc1cccnc1Cl` [Example 299, 1-(2-Chloropyridin-3-ylmethyl)-7-iodo-3,4-dihydro-1H-pyrido[2,3-b]pyrazin-2-one] are 249 °C, over 100 µM and 1 to 10 µM.
The like results for `O=S1(=O)CCN(CC#Cc2cnc3c(c2)N(Cc2cc(Cl)ccc2Cl)CCN3)CC1` [Example 174, 1-(2,5-Dichlorobenzyl)-7-[3-(1,1-dioxo-1λ^6-thiomorpholin-4-yl)prop-1-ynyl]-1,2,3,4-tetrahydropyrido[2,3-b]pyrazine] were, in that order, over 200 °C, 10 to 100 µM and 0.1 to 1 µM.
